From ChEMBL document CHEMBL1201862, “PubChem BioAssay data set” (2004)
Calls of active or inactive are those of the source.

Experiments:
[1] = target: T1, Voltage-gated N-type calcium channel alpha-1B subunit/Amyloid beta A4 precursor protein-binding family A member 1 (Homo sapiens, UniProt Q00975+Q02410); type: protein assay
[2] = target: T2, Apoptotic protease-activating factor 1 (Homo sapiens, UniProt O14727); test: activation of Apaf-1 mediated apoptosis – fluorescent, uHTS hits, dose response (AID 588554); type: functional
T2 sequence (O14727 whole entry): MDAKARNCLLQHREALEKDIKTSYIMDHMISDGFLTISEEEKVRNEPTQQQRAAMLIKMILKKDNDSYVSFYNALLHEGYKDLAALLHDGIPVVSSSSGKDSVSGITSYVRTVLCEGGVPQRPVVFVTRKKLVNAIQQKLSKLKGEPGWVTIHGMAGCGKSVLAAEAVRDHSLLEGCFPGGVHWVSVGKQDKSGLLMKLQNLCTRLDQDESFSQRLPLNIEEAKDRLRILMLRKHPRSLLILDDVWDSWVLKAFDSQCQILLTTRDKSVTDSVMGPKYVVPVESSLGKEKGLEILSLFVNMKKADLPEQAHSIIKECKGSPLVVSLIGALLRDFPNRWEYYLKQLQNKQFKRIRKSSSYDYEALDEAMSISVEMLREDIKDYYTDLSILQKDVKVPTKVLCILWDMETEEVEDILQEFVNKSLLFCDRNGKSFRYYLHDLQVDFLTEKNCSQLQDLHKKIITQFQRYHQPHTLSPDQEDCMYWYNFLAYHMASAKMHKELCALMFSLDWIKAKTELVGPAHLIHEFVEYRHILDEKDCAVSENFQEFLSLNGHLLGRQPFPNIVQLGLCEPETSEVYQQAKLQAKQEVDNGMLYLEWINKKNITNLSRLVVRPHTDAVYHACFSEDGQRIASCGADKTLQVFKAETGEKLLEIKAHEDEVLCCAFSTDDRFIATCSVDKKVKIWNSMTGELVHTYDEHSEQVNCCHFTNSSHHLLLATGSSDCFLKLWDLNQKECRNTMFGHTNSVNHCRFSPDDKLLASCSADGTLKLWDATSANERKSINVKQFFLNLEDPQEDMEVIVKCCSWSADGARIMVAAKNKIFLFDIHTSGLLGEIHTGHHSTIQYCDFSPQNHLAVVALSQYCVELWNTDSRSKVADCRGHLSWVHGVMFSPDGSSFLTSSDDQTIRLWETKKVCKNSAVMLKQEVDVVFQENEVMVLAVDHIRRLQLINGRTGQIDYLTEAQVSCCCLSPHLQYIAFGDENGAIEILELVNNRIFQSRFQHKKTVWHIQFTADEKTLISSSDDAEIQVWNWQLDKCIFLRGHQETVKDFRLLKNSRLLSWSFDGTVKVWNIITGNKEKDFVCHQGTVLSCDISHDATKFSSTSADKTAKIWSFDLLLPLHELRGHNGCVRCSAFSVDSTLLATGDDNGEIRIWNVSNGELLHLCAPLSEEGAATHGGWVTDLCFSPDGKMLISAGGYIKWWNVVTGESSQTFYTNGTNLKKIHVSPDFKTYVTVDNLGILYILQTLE

[3] = target: T1, Voltage-gated N-type calcium channel alpha-1B subunit/Amyloid beta A4 precursor protein-binding family A member 1; type: protein assay; remark: listed apart in the source
[4] = target: Nucleotide-binding oligomerization domain-containing protein 1 (Homo sapiens, UniProt Q9Y239); test: blockers of NOD1 pathway activity – revised, SAR follow-up (AID 2333); type: functional
HEK293 [5] = test: cells; type: functional, cell-based; conditions: Homo sapiens
HEK293 [6] = test: inhibition of NOD1-driven NF-kB reporter – cell-based, luminescence, uHTS, primary screen (AID 1578); type: functional; conditions: Homo sapiens
Tumor necrosis factor = Tumor necrosis factor (Homo sapiens, UniProt P01375); test: analog potency on TNFa NF-kB signaling – cell-based, revised, SAR follow-up (AID 2337); type: functional
HEK293 [7] = test: cells; conditions: Homo sapiens
HEK293 [8] = test: cells; type: functional, cell-based; conditions: Homo sapiens; remark: listed apart in the source
HEK293 [9] = test: NOD2 signaling inhibitors in MDP-stimulated cells, cell-based, uHTS, luminescence (AID 2001); type: functional; conditions: Homo sapiens
H9c2 = test: cells; type: functional, cell-based; conditions: Rattus norvegicus, H9c2, Myocardium;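 further: confirmatory concentration-response retest of ultra-high-throughput screening hits for modulation of myocardial damage; cell death induced by hydrogen peroxide oxidative stress; compound pretreatment for 60 min then peroxide exposure for 2 h; potency is for protecting the cells against peroxide damage rather than for killing them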
[10] = target: Nucleotide-binding oligomerization domain-containing protein 2 (Homo sapiens, UniProt Q9HC29); test: inhibition of NOD2-driven NF-kB reporter – cell-based, luminescence, uHTS, HEK293 (AID 1566); type: functional
HEK293 [11] = test: cells; type: functional, cell-based; conditions: Homo sapiens; remark: listed apart in the source
[12] = target: Beta-adrenergic receptor kinase 1 (Homo sapiens, UniProt P25098); test: aptamer displacement from bead-bound GRK2 – biochemical, cherry pick 1, bead flow cytometry, dose response (AID 504500)
[13] = target: T3, Mannose-6-phosphate isomerase (Homo sapiens, UniProt P34949); test: phosphomannose isomerase inhibition – biochemical, fluorescence intensity, confirmation (AID 1535)
T3 sequence (P34949 whole entry): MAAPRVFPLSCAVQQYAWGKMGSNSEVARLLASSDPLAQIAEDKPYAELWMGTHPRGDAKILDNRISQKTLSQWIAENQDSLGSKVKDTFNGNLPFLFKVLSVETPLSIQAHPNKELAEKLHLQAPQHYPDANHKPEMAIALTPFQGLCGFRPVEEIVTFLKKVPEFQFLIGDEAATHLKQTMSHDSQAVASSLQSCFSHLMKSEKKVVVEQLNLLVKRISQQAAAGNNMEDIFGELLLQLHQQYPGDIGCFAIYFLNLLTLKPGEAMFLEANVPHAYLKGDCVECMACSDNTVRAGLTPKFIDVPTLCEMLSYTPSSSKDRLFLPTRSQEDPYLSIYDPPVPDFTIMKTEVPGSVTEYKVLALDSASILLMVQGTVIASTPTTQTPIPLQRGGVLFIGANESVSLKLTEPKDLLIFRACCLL

Phosphomannomutase 2 = Phosphomannomutase 2 (Homo sapiens, UniProt O15305); test: Counter screen SAR assay for PMM2 inhibitors via a fluorescence intensity assay. [Related pubchem assays (depositor defined):AID1545, AID1574]
HeLa = test: ATP-based viability loss in HeLa cells – cell-based, CellTiter-Glo luminescence, cherry-pick samples, cytotoxicity control for MITF activator project, dose response (AID 540259); type: functional; conditions: Homo sapiens
[14] = Luminescence Cell-Based Dose Response HTS to Identify Activators of Luciferase Translation or Activity in H4 […] Cells. [Related pubchem assays: 1829 (Project Summary), 1814 (Primary HTS)]; type: functional
[15] = Luminescence Cell-Based Dose Confirmation HTS to Identify Activators of 5'UTR Stem-Loop Driven Alpha-Synuclein mRNA Translation in H4 Neuroglioblastoma Cells. [Related pubchem assays: 1829 (Project Summary), 1814 (Primary HTS)]; type: functional
H4 = test: Luminescence Cell-Based Dose Response HTS to Identify Activators of 5'UTR Stem-Loop Driven Prion Protein mRNA Translation in H4 Neuroglioblastoma Cells. [Related pubchem assays: 1829 (Project Summary), 1814 (Primary HTS)]; type: functional; conditions: Homo sapiens

T1 sequence (Q00975 whole entry): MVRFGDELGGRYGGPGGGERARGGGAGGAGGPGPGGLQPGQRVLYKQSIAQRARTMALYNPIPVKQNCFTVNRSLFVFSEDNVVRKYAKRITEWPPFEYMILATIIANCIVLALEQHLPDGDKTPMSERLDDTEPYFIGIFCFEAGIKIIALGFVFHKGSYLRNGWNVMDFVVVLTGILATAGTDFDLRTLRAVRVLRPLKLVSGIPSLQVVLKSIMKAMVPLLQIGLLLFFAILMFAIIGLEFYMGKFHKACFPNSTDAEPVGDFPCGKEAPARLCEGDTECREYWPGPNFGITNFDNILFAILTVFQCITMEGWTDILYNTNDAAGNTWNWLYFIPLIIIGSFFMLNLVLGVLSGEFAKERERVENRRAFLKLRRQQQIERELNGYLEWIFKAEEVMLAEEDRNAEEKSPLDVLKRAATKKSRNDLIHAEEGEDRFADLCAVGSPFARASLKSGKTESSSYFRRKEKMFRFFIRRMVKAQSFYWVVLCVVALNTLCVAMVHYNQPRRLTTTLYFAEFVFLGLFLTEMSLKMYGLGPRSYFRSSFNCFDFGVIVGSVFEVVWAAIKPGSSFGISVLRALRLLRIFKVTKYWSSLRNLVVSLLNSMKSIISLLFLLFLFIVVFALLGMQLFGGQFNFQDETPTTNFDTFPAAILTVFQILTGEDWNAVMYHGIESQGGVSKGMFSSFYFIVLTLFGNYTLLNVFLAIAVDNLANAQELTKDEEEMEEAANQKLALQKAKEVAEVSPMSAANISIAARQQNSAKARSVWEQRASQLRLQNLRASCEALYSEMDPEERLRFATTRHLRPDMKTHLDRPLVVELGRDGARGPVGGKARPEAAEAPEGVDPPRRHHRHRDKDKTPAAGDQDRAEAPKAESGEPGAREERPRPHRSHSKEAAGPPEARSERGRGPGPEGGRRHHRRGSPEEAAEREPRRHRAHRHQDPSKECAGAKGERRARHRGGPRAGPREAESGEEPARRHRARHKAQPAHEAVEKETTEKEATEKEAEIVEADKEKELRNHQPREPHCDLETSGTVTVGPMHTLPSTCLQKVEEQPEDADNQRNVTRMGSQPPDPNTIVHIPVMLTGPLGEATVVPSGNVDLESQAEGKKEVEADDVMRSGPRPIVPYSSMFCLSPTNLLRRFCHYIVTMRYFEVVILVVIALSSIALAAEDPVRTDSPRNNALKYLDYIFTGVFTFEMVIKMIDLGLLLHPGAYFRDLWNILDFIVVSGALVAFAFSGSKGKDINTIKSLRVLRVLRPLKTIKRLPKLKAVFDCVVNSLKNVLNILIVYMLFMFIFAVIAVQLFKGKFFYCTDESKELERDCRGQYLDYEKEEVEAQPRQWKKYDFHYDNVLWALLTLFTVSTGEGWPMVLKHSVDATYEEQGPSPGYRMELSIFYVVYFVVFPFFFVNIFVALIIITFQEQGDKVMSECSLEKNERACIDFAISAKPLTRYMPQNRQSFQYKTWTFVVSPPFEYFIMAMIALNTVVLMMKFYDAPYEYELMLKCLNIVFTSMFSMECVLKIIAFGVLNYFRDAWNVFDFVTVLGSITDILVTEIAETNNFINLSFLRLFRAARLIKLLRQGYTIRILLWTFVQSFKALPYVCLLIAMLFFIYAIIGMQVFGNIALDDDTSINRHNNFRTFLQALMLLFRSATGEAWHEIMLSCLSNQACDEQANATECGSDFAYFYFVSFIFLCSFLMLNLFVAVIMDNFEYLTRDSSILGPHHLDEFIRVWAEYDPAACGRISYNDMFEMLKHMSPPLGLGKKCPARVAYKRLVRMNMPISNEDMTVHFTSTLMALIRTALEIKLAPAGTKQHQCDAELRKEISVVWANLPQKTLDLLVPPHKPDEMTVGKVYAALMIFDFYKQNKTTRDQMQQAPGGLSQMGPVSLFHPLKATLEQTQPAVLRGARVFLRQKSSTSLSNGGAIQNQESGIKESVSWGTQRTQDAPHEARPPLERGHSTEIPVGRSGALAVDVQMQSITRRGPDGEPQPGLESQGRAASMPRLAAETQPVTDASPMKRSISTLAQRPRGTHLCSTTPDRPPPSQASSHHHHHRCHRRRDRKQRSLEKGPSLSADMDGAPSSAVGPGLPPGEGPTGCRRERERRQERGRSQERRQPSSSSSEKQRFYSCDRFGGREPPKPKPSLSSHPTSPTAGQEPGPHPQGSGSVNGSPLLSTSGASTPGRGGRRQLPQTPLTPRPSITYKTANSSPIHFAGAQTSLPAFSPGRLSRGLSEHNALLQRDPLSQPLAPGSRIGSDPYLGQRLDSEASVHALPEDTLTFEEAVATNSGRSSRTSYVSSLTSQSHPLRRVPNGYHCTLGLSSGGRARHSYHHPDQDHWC
T1 sequence (Q02410 whole entry): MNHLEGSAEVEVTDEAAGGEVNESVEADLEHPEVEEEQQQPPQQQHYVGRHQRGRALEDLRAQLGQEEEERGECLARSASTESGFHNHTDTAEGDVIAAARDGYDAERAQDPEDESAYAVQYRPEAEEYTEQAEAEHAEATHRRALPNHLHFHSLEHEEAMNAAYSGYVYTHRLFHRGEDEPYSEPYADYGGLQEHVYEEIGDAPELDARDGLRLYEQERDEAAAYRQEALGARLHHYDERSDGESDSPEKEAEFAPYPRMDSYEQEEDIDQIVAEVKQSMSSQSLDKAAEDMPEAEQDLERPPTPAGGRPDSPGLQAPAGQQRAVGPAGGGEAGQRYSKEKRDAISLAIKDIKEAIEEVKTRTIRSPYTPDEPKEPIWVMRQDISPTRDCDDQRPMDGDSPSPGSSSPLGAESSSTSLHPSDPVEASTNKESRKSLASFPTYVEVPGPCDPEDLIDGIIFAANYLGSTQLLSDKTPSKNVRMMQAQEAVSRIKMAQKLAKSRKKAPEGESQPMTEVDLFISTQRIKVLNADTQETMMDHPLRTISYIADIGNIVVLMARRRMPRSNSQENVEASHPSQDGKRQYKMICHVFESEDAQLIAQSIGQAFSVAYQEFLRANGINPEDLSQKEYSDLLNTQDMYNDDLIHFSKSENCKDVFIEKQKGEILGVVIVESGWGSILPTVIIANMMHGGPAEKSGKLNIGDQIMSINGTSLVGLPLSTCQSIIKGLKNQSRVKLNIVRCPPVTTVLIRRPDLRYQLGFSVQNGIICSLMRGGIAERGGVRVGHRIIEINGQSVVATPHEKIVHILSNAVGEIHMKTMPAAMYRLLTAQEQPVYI
Sequence of Beta-adrenergic receptor kinase 1 (P25098 whole entry): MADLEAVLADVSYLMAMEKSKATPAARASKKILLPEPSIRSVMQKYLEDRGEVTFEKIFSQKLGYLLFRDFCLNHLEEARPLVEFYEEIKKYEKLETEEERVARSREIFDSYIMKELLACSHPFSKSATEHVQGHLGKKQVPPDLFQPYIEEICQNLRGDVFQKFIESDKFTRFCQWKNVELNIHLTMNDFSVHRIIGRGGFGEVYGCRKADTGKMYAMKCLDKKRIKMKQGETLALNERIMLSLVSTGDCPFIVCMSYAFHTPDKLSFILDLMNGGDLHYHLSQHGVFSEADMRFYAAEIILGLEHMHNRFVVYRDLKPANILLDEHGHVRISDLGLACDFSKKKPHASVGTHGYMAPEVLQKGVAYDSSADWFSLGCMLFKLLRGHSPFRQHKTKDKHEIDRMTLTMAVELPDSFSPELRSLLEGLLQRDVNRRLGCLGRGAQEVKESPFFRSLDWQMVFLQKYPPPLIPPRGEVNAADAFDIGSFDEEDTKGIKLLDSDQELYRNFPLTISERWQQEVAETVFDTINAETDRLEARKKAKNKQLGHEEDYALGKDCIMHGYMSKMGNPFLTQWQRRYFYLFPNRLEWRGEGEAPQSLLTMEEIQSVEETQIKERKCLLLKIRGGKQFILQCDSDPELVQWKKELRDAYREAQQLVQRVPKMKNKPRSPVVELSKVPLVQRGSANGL
Sequence of Nucleotide-binding oligomerization domain-containing protein 2 (Q9HC29 whole entry, the tested form may be a part): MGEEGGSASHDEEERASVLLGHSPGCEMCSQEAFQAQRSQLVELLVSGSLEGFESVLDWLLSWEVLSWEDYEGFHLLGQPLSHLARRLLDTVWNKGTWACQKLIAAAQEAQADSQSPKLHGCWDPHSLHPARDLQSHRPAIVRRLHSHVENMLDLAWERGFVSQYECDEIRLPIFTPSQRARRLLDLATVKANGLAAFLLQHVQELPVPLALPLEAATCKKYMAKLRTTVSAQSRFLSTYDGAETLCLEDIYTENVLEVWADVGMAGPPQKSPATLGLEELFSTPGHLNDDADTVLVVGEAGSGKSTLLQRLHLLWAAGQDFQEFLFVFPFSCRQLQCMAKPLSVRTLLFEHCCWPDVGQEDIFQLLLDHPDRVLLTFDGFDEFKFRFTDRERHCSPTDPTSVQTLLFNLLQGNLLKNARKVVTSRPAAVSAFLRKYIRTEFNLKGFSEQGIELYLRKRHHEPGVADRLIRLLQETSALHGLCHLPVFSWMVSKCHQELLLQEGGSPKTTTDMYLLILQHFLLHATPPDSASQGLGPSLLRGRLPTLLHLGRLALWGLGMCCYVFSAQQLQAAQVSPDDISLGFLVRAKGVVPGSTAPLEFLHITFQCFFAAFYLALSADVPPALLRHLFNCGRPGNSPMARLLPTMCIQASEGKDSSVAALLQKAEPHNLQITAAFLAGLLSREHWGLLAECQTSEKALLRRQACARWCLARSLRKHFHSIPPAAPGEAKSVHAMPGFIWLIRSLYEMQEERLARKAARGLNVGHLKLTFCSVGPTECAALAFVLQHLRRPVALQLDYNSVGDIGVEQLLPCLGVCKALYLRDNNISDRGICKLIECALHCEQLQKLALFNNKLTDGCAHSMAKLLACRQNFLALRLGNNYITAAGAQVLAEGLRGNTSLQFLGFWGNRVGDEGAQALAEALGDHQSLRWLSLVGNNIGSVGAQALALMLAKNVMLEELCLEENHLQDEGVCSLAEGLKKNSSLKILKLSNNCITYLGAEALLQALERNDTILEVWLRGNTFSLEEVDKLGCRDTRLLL

In the case of `O=C(CCS(=O)(=O)c1ccc(Br)cc1)NCc1ccco1`, the IC50 [1] is reported as > 50 µM (inactive), the EC50 [2] is reported as 23.4 µM (active) and the IC50 [3] is reported as 12.1 µM (active).

With `Cc1c(O)ccc2c(-c3ccccc3)cc(=O)oc12` the IC50 [4] was 6.53 µM (active), the IC50 (HEK293 [5]) was > 20 µM (inactive) and the EC50 (HEK293 [6]) was 16.3 µM (active). For the same compound, the IC50 (Tumor necrosis factor) was 6.62 µM (active), the IC50 (HEK293 [7]) was > 20 µM (inactive) and the IC50 (HEK293 [8]) was 5.78 µM (active). The IC50 (HEK293 [9]) was 6.85 µM (active), the IC50 (H9c2) was > 79 µM (inactive) and the EC50 [10] was 4.67 µM (active). For the same compound, the IC50 (HEK293 [11]) was > 20 µM (inactive).

For `CCCC[N+](C)(C)CCC(=O)NC(C)(C)CS(=O)(=O)[O-]`, the EC50 [12] was 4.53 µM (active).

For `Clc1nss/c1=N\c1nc2ccccc2s1`, the IC50 [13] was > 100 µM (inactive) and the IC50 (Phosphomannomutase 2) was > 100 µM (inactive).

In the case of `COc1ccc(/C(O)=C/C=N/c2cccc(C)n2)cc1OC`, the AC50 (HeLa) is reported as 50.8 µM (active), the EC50 [14] is reported as 0.122 µM (active) and the EC50 [15] is reported as 0.146 µM (active). The EC50 (H4) was 48.3 µM (active).
